The results in this text go back to PMC6369212, “Cytochrome P450 3A Enzymes Are Key Contributors for Hepatic Metabolism of Bufotalin, a Natural Constitute in Chinese Medicine Chansu” (Frontiers in Pharmacology, 2019).

As usually defined, the Km is the concentration of substrate that gives half-maximal velocity.

Data set [1] deals with HLM. The data set can be described thus: Material balance of BFT and its metabolite in HLM. The format is in vitro ADME, human. The procedure:
A single metabolite of BFT was identified following incubation with HLM (0.3 mg protein/ml) in the presence of the NADPH-generating system (Figure 1). […] The metabolite was characterized by UFLC-DAD-ESI-MS, and the formation of monohydroxylbufotalin was NADPH-, time-, and microsome-dependent. […] The [M+H]^+ and [M+CH3CN+H]^+ ion of the metabolite at m/z in HLM were 461.3 and 502.4, respectively.

Data set [2] deals with BFT 5β-hydroxylation in pooled HLM. The data set can be described thus: Chemical inhibition of BFT 5β-hydroxylation by selective CYP inhibitors in HLM. The format is in vitro ADME, human. The note with it: BFT 10 μM, HLM 0.25 mg protein/ml.
Protocol: (§1) Human liver microsomes or CYPs were incubated with NADPH-generating system, which included NADP^+ (1 mM), glucose-6-phosphate (10 mM), glucose-6-phosphate dehydrogenase (1 unit/ml), and 4 mM MgCl2 in 100 mM potassium phosphate buffer (pH 7.4) in a total incubation volume of 200 μl. After a 3 min preincubation at 37°C, the reaction was initiated by the addition of NADPH-generating system and further incubated at 37°C for 30 min. The reaction was quenched with 100 μl of ice-cold acetonitrile. The samples were chilled, spun at 20,000 × g for 20 min at 4°C. Aliquots of supernatants were then stored at -20°C until analysis. All incubations throughout the study were done in three experiments conducted in duplicate with S.D. values generally below 10%.
A short description of data set [3]: in vitro. The note with it: human; for Km: pH 7.4, Km, BFT 5β-hydroxylation, HLM 0.25 mg protein/mL, 30 min, biphasic kinetics.
Protocol: as §1
(§2) The formation rates of 5-HBFT was within the linear range of the incubation time and protein concentration. […] BFT was incubated with pooled HLM (0.25 mg protein/mL) for 30 min, or with recombinant CYP3A4 (5 nM) and CYP3A5 (10 nM) for 30 min. […] The kinetic constants were calculated with GraphPad Prism software, version 6.0, and the results were graphically represented by Eadie–Hofstee plots.
(§3) (1) v=Vmax 1[S]/Kmax 1+[S]+Vmax 2[S]/Kmax 2+[S]
(§4) where v is the rate of the reaction, [S] is the substrate concentration, Vmax is the maximum velocity estimate, Km is the substrate affinity constant.
(§5) Km values are μM, Vmax values were in nmol/min/mg protein for liver microsomes, or in nmol/min/nmol CYP for CYP3A. […] Each value was the mean ± S.D. of three determinations performed in duplicate.
Data set [4] has as its system other P450 isoforms. The data set can be described thus: Reaction phenotyping of BFT hydroxylation with other recombinant P450 isoforms. The class given is in vitro ADME, human. The note with it: BFT 3 and 100 μM, isoforms other than CYP3A4 and CYP3A5. From the text:
BFT and BF were purchased from Shanghai Winherb Medical Technology Company (Shanghai, China). ABT, furafylline, sulfaphenazole, clomethiazole, omeprazole, 8-methoxypsoralen, ticlopidine, CYP3cide, glucose-6-phosphate dehydrogenase, D-glucose-6-phosphate, and NADP^+ were obtained from Sigma (St. Louis, MO, United States). Montelukast, quinidine, ketoconazole was purchased from Jianglai Biotechnology Co., Ltd. (Shanghai, China). The pooled HLMs (from 50 donors, lot no. X008067) were obtained from BioreclamationIVT (Baltimore, MD, United States). A panel of baculovirus expressed human P450s (CYP1A1, 1A2, 2A6, 2A13, 2B6, 2C8, 2C9, 2C19, 2D6, 2E1, 3A4, 3A5, 4F2, and 4F3), co-expressing NADPH-CYP reductase and cytochrome b5 were obtained from BD Gentest Corp (Woburn, MA, United States). All chemicals and solvents were of analytical grade.
[…] cDNA-expressed human P450 isoforms co-expressing NADPH-P450 reductase were used for assay of BFT hydroxylation activity.

The subject of data set [5] is HLM.
Protocol: as §1, §2, §3, §4, §5
The target in data set [6] is recombinant human CYP3A4 (Homo sapiens, UniProt P08684). The data set can be described thus: Kinetic analysis of 5β-hydroxylation in recombinant CYP3A4.
Protocol: as §1, §2, §3, §4, §5
For data set [7], the target named is recombinant human CYP3A5 (Homo sapiens, UniProt P20815). The data set is described as follows: Kinetic analysis of 5β-hydroxylation in recombinant CYP3A5.
Protocol: as §1
(§6) BFT was incubated with pooled HLM (0.25 mg protein/mL) for 30 min, or with recombinant CYP3A4 (5 nM) and CYP3A5 (10 nM) for 30 min. […] The kinetic constants were calculated with GraphPad Prism software, version 6.0, and the results were graphically represented by Eadie–Hofstee plots.
(2) v=Vmax/1+(Km/[S])+([S]/Ksi)
(§7) where Ksi is the substrate inhibition constant.
as §5
Data set [8] has as its system CC(=O)O[C@H]1C[C@]2(O)[C@@H]3CC[C@@H]4C[C@@H](O)CC[C@]4(C)[C@H]3CC[C@]2(C)[C@H]1c1ccc(=O)oc1. The data set is described as follows: cells, lysate or membranes named. The note with it: other: CYP3A5 10 nM, 30 min, substrate inhibition kinetics; pH 7.4; 37.0 °C.
Protocol: as §1, §6
(2) v=Vmax/1+(Km/[S])+([S]/Ksi)
as §7, §5
The mark [9] stands for this setting: HLM 0.25 mg protein/mL, 30 min, biphasic kinetics.
The mark [10] stands for this setting: CYP3A4 5 nM, 30 min, biphasic kinetics.
Where [11] appears, read: CYP3A5 10 nM, 30 min, substrate inhibition kinetics.

Values joined by “and” are separate entries in the source; they are usually repeats but may differ in a detail not shown here. Equal values may be shown once.

recombinant human CYP3A4, sequence (P08684 2-503 limits assumed): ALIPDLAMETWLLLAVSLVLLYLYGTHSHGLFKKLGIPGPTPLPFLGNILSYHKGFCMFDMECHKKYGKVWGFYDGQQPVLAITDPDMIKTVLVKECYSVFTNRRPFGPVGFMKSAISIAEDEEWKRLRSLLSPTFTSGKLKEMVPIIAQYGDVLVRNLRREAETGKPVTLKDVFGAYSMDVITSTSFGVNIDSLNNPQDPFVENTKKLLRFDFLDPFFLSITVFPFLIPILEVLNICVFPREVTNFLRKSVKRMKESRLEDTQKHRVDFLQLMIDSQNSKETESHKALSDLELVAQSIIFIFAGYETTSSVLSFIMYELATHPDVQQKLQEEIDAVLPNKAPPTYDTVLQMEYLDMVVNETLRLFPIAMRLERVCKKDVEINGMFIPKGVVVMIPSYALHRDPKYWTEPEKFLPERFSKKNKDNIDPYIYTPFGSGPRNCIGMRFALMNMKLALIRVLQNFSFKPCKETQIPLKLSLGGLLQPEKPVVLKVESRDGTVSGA
recombinant human CYP3A5, sequence (P20815 whole entry): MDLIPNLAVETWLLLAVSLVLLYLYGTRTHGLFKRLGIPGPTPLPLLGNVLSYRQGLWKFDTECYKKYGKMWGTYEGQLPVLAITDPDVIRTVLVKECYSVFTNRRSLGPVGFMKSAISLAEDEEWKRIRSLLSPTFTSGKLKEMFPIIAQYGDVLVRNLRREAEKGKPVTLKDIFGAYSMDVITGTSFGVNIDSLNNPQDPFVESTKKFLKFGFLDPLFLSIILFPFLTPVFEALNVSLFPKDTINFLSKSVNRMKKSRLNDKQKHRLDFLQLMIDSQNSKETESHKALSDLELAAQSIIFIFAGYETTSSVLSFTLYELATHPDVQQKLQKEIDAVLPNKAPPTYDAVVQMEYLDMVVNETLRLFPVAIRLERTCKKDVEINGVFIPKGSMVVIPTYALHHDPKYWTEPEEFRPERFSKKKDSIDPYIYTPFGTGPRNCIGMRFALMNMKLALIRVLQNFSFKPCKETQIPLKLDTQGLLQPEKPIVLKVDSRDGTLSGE

For the molecule `CC(=O)OC1CC2(O)C3CCC4(O)CC(O)CCC4(C)C3CCC2(C)C1c1ccc(=O)oc1` (stereo not drawn) [5-HBFT, 5β-hydroxylbufotalin], the entries for the “Compound (%), material balance” value in data set [1] (time 0 min), in data set [1] (time 30 min) and in data set [1] (time 60 min) were 0%, 11.1392% and 24.5928%, respectively.

On to `Nn1nnc2ccccc21` [ABT, 1-aminobenzotriazole], for which the “inhibition of 5-HBFT formation in HLM” value in data set [2] was “completely”.

For `C[C@]12CC[C@H](O)C[C@H]1CC[C@@H]1[C@@H]2CC[C@]2(C)[C@@H](c3ccc(=O)oc3)CC[C@]12O` [BF, bufalin, reference compound], the Michaelis-Menten constant (Km) at 30 min in data set [3] (pH 7.4) was 8 ± 0.52 µM.

In the case of `CC(=O)O[C@H]1C[C@]2(O)[C@@H]3CC[C@@H]4C[C@@H](O)CC[C@]4(C)[C@H]3CC[C@]2(C)[C@H]1c1ccc(=O)oc1` [BFT, bufotalin], in data set [4], the “metabolite formation by other P450 isoforms” value is reported as “no metabolites were detected”. In addition, the “Compound (%), material balance” value in data set [1] (time 0 min) was found to be 99.5%; in data set [1] (time 30 min), 88.0247%; in data set [1] (time 60 min), 73.5708%. In addition, the “Vmax, high-affinity site (Vmax1), BFT 5β-hydroxylation” value in data set [5] (setting [9]) is 33.31 per min/mg and 33.31 ± 12.64 per min/mg; in data set [6] (setting [10]) it was 6.87 per min/nmol P450 and 6.87 ± 3.59 per min/nmol P450. The “Vmax, low-affinity site (Vmax2), BFT 5β-hydroxylation” value in data set [5] (setting [9]) was 107.30 per min/mg and 107.30 ± 11.77 per min/mg; in data set [6] (setting [10]) it was 33.70 per min/nmol P450 and 33.70 ± 3.08 per min/nmol P450. The “kinetic behavior of BFT 5β-hydroxylation” value in data set [5] (HLM, Eadie–Hofstee plot) is “biphasic kinetics”; in data set [6] (CYP3A4, Eadie–Hofstee plot), “biphasic kinetics”; in data set [7] (CYP3A5, Eadie–Hofstee plot) it was “substrate inhibition kinetic”. The Michaelis constant (Km) in data set [3] (high-affinity site (Km1)) was found to be 3.71 ± 2.68 µM; in data set [3] (low-affinity site (Km2)), 134 ± 72.2 µM. Besides, the “CLint, BFT 5β-hydroxylation” value in data set [7] (CYP3A5) is 1186.12. Moreover, in data set [7] (setting [11]), the “Ksi (substrate inhibition constant), BFT 5β-hydroxylation” value stood at 170.00 ± 12.69 µM. Further, the “Vmax, BFT 5β-hydroxylation” value in data set [7] (setting [11]) is 3.45 nmol/min per nanomole P450.

Take `Cc1ccc(-c2c(-c3nn(C)c4ncnc(N5CC[C@H](N6CCCCC6)C5)c34)cnn2C)cc1` [CYP3cide]: in data set [2], the “inhibition of 5-HBFT formation in HLM” value was about 90%.

For the molecule recombinant human CYP3A5 (Homo sapiens), in data set [8], the Michaelis-Menten constant (Km) amounted to 2.91 ± 0.24 µM and the kcat is 3.45 ± 0.09 nmol/min per nanomole P450.
